Measurements: patent US20210261524A1, “THERAPEUTIC COMPOUNDS AND COMPOSITIONS” (Exithera Pharmaceuticals, Inc., priority 2018, published 2021)

Tested on: blood coagulation components
Conditions: dog, in vivo
Experimental: The following parameters and endpoints were evaluated in this study: mortality, body weight, physical, clinical pathology parameters (hematology and coagulation), […], and bioanalytical parameters.
The vehicle and test article were administered via intravenous (IV) infusion once on Day 1 for 135 minutes (initiated 30 minutes prior to starting the Cardiopulmonary Bypass (CPB) and continuing for 105 minutes of CPB). Group 2 animals received a […] IV bolus dose immediately prior to the start of IV infusion. Group 3, 4, and 5 animals received a 10 mg/kg IV bolus dose prior to the start of the IV infusion; with the CPB machine primed with test article at 10 μg/mL.
Infusion of the Compound 1 was started 30 minutes prior to the animal being placed on the CPB pump. The CPB pump was primed with 0.9% saline.
Venous and arterial sheaths were flushed with the Compound 1 at a concentration of 10 μg/mL. An IV bolus dose of the test article was administered immediately prior to the start of the infusion. Infusion of Compound 1 was started 30 minutes prior to the animal being placed on the CPB pump. The CPB […] was primed with 10 μg/mL of the Compound 1 prior to initiation of the CPB pump.
An IV bolus dose of the Compound 1 was administered immediately prior to the start of the infusion. […]

C[C@@H](NC(=O)N1C(=O)[C@H](Cc2ccnc(N)c2)[C@H]1C(=O)O)C1CCCCC1 [Compound 1, (2S,3R)-3-((2-aminopyridin-4-yl)methyl)-1-(((R)-1-cyclohexylethyl)carbamoyl)-4-oxoazetidine-2-carboxylic acid]
morbidity or mortality: not associated with any increases in morbidity or mortality
mortality (survival to study termination): All animals survived to study termination
